This is an account of results in patent US5470862A, “Substituted pyrazolyl compounds and methods employing such compounds” (Ohmeda Pharmaceutical Products Division Inc., priority 1995, dated 1995).

SMILES strings stand for the structures.

One assay deals with mice. Briefly: Loss of righting after intravenous administration (mouse). It counts as in vivo. The conditions noted are these: 20 min, intravenous (lateral tail vein), 20 minute observation, acid addition salts, values corrected for the salts. How it is done: (§1) The acid addition salts of the compounds were dissolved in sterile water for injection, U.S.P, to form a solution, the concentration of which varied from 0.001 mg/ml to 5 mg/ml. Mice or rats were used for the tests. The test solution was administered to the test animal intravenously through the lateral tail vein. The animals were observed over a 20 minute period for loss of righting which is defined as the animal remaining in a supine position for 30 seconds. Five to ten mice and three to six rats were utilized for each dosage. The ED50 was calculated for each test compound either by linear regression or by a standard computer program utilizing the method of Litchfield and Wilcoxon, J. Pharmacol. Exp. Ther., vol. 96, p. 99 (1949). Since different animals were used, the ED50 values in Table 1 are those determined in the mouse except those values marked with an asterisk which were determined in the rat.

The test system of a further assay is rats. Nature of the assay: Loss of righting after intravenous administration (rat). It counts as in vivo. The conditions noted are these: 20 min; rat (asterisk), intravenous (lateral tail vein), 20 minute observation; acid addition salts, values corrected for the salts. How it is done:
as §1

With `CCOC(=O)c1cc(-c2cocn2)n(C(C)c2ccccn2)n1` (stereo not drawn), in the assay on mice, the ED50 was found to be 13.4 mg/kg.

Regarding `CCOC(=O)c1cc(-c2ccco2)nn1Cc1ccccn1`, the ED50 in the assay on mice was 8.9 mg/kg.

As to `CCOC(=O)c1cc(-c2ccccc2N)nn1C(C)c1ccccn1` (stereo not drawn), the ED50 in the assay with rats amounted to 0.81 mg/kg.

Consider `CCOC(=O)c1cc(-c2csc(-c3ccncc3)n2)nn1C(C)c1ccccn1` (stereo not drawn), for which the ED50 in the assay with mice came to 5.7 mg/kg.

On to `CCOC(=O)c1cc(C)nn1Cc1cccnc1` [H / CH3 / CO2 Et / CH / N], for which the ED50 in the assay with mice stood at 25.1 mg/kg.

For `CCOC(=O)c1cc(C(=O)OCC)n(C(C)c2ccccn2)n1` (stereo not drawn) [CH3 / CO2 Et / CO2 Et / N / CH, 1-[1-(2-pyridyl)ethyl]pyrazole-3,5-dicarboxylic acid diethyl ester], in the assay on mice, the ED50 was determined as 1.4 mg/kg.

As for `CCOC(=O)c1cc(-c2cccn2C)n(C(C)c2ccccn2)n1` (stereo not drawn), in the assay on mice, the ED50 was 6.2 mg/kg.

Take `CCOC(=O)c1cc(-c2ncc(C)o2)n(C(C)c2ccccn2)n1` (stereo not drawn): in the assay with rats, the ED50 was found to be 0.85 mg/kg.

As for `CCOC(=O)c1cc(-c2cc(C)on2)n(C(C)c2ccccn2)n1` (stereo not drawn), in the assay on mice, the ED50 is 23.7 mg/kg.

As to `CCOC(=O)c1cc(C)n(C(C)c2cccnc2)n1` (stereo not drawn) [CH3 / CO2 Et / CH3 / CH / N], the ED50 in the assay on mice is 26.3 mg/kg.

Consider `CCOC(=O)c1cc(-c2cccn2C)nn1C(C)c1ccccn1` (stereo not drawn), for which the ED50 in the assay on mice was determined as 0.95 mg/kg.

`CCOC(=O)c1ccn(Cc2ccccn2)n1` [H / CO2 Et / H / N / CH]: in the assay with mice, the ED50 was 43.9 mg/kg.

With `CCOC(=O)c1cc(-c2ncc(C)o2)nn1C(C)c1ccccn1` (stereo not drawn), the ED50 in the assay on rats was found to be 1.1 mg/kg.

Take `CCOC(=O)c1ccn(C(C)c2ccccn2)n1` (stereo not drawn) [CH3 / CO2 Et / H / N / CH]: in the assay with mice, the ED50 amounted to 34.2 mg/kg.

For the compound `CCOC(=O)c1cc(C(=O)OCC)n(Cc2cccnc2)n1` [H / CO2 Et / CO2 Et / CH / N], the ED50 in the assay on mice was found to be 10.4 mg/kg.

Take `CCOC(=O)c1cc(-c2nc(C)no2)nn1C(C)c1ccccn1` (stereo not drawn): the ED50 with rats was 0.79 mg/kg.

For the compound `CCOC(=O)c1cc(-c2ccc(N)cc2)nn1C(C)c1ccccn1` (stereo not drawn), in the assay on rats, the ED50 worked out at 2.7 mg/kg.

Turning to `CCOC(=O)c1cc(-c2ccsc2)n(C(C)c2ccccn2)n1` (stereo not drawn), the median effective dose (ED50) with mice was 17.6 mg/kg.

As for `CCOC(=O)c1cc(-c2ccn(C)c2)n(C(C)c2ccccn2)n1` (stereo not drawn), in the assay with rats, the ED50 amounted to 4.2 mg/kg.

Turning to `CCOC(=O)c1cc(-c2csc(-c3ccncc3)n2)n(C(C)c2ccccn2)n1` (stereo not drawn), the ED50 in the assay on mice is 51.4 mg/kg.

On to `CCOC(=O)c1cc(-c2ocnc2C)nn1C(C)c1ccccn1` (stereo not drawn), for which the ED50 in the assay with mice worked out at 4.7 mg/kg.

With `CCOC(=O)c1cc(-c2cccs2)n(C(C)c2ccccn2)n1` (stereo not drawn), the ED50 in the assay with mice came to 17.6 mg/kg.

Regarding `CCOC(=O)c1cc(C(C)=O)n(C(C)c2ccccn2)n1` (stereo not drawn) [CH3 / CO2 Et / CH3 CO / N / CH], in the assay with mice, the ED50 was 19.7 mg/kg.

Turning to `CCCNC(=O)c1cc(C(=O)OCC)n(C(C)c2ccccn2)n1` (stereo not drawn) [CH3 / CONHC3 H7 / CO2 Et / N / CH], in the assay on rats, the ED50 is 1.8 mg/kg.

With `CCOC(=O)c1cc(C=O)nn1C(C)c1ccccn1` (stereo not drawn) [CH3 / CHO / CO2 Et / N / CH, 3-formyl-1-(1-(2-pyridinyl)ethyl)pyrazole-5-carboxylic acid ethyl ester], in the assay with mice, the ED50 came to 9.9 mg/kg.

`CCOC(=O)c1cc(-c2ccccn2)nn1Cc1ccccn1`: the ED50 in the assay with rats came to 5.1 mg/kg.

On to `CCOC(=O)c1cc(C)n(Cc2ccccn2)n1` [H / CO2 Et / CH3 / N / CH], for which the ED50 with mice is 37.7 mg/kg.

In the case of `CCOC(=O)c1cc(C)n(C(C)c2ccccn2)n1` (stereo not drawn) [CH3 / CO2 Et / CH3 / N / CH], the ED50 with mice came out at 6.9 mg/kg.

On to `CCOC(=O)c1cc(-c2cccc(C)n2)nn1C(C)c1ccccn1` (stereo not drawn), for which the ED50 with rats came out at 1.6 mg/kg.

For the compound `CCOC(=O)c1cc(-c2cn3ccccc3n2)nn1C(C)c1ccccn1` (stereo not drawn), in the assay on mice, the ED50 was found to be 14.3 mg/kg.

`CCOC(=O)c1cc(C)nn1Cc1ccccn1` [H / CH3 / CO2 Et / N / CH]: the ED50 with mice came out at 17.4 mg/kg.

With `C=C(C)c1cc(C(=O)OCC)nn1C(C)c1ccccn1` (stereo not drawn), in the assay with mice, the ED50 is 8.9 mg/kg.

Take `CCOC(=O)c1cc(-c2nccs2)nn1C(C)c1ccccn1` (stereo not drawn): the ED50 in the assay on mice was 3.2 mg/kg.

As for `CCOC(=O)c1cc(C)nn1C(C)c1ccccn1` (stereo not drawn) [CH3 / CH3 / CO2 Et / N / CH], the ED50 in the assay on mice is 9 mg/kg.

`CCOC(=O)c1cc(-c2coc(C)n2)nn1C(C)c1ccccn1` (stereo not drawn): in the assay on rats, the ED50 worked out at 1.2 mg/kg.

With `CCOC(=O)c1cc(C)nn1C(C)c1cccnc1` (stereo not drawn) [CH3 / CH3 / CO2 Et / CH / N], the ED50 with mice came to 21.5 mg/kg.

In the case of `CCOC(=O)c1cc(-c2ccccn2)nn1Cc1cccnc1`, the ED50 in the assay with rats amounted to 30.5 mg/kg.

On to `CCOC(=O)c1nc(-c2cc(C(=O)OCC)n(C(C)c3ccccn3)n2)cs1` (stereo not drawn), for which, in the assay with mice, the ED50 worked out at 13.6 mg/kg.

As to `CCOC(=O)c1cc(-c2cc(C)on2)nn1C(C)c1ccccn1` (stereo not drawn), the ED50 with mice came out at 9.9 mg/kg.

As for `CCOC(=O)c1cc(-c2ccccn2)n(C(C)c2ccccn2)n1` (stereo not drawn), in the assay with mice, the ED50 came to 17.5 mg/kg.

In the case of `CC(=O)OCc1cc(C)n(C(C)c2ccccn2)n1` (stereo not drawn) [CH3 / CH2 OCOCH3 / CH3 / N / CH], the ED50 in the assay on mice was found to be 61.1 mg/kg.

Regarding `CCOC(=O)c1cc(-c2cnco2)nn1C(C)c1ccccn1` (stereo not drawn), the ED50 in the assay with mice stood at 2.8 mg/kg.

In the case of `CCOC(=O)c1cc(-c2cc(C)no2)nn1C(C)c1ccccn1` (stereo not drawn), the ED50 in the assay on rats is 3.8 mg/kg.

Regarding `CCOC(=O)c1cc(COC)n(C(C)c2ccccn2)n1` (stereo not drawn) [CH3 / CO2 Et / CH2 OCH3 / N / CH], in the assay with mice, the ED50 came to 19.1 mg/kg.

Turning to `CCOC(=O)c1cc(CC)n(C(C)c2ccccn2)n1` (stereo not drawn) [CH3 / CO2 Et / CH2 CH3 / N / CH], the ED50 in the assay with mice came to 9.4 mg/kg.

For the compound `CCOC(=O)c1ccnn1C(C)c1ccccn1` (stereo not drawn) [CH3 / H / CO2 Et / N / CH], the ED50 in the assay on mice was determined as 31 mg/kg.

As for `CCOC(=O)c1cc(-c2cccnc2)nn1C(C)c1ccccn1` (stereo not drawn), the ED50 in the assay on mice stood at 2.3 mg/kg.

`CCOC(=O)c1cc(-c2cccc(N)c2)nn1C(C)c1ccccn1` (stereo not drawn): the ED50 in the assay on rats was 0.53 mg/kg.

For the compound `CCOC(=O)c1cc(-c2coc(C)n2)n(C(C)c2ccccn2)n1` (stereo not drawn), in the assay with rats, the ED50 came to 8.8 mg/kg.

Take `CCOC(=O)c1cc(-c2ccccc2)nn1C(C)c1ccccn1` (stereo not drawn): the ED50 in the assay with rats came to 2.8 mg/kg.

With `CCOC(=O)c1cc(-c2csc(C(=O)OCC)n2)n(C(C)c2ccccn2)n1` (stereo not drawn), the ED50 in the assay with mice came to 31.6 mg/kg.

Turning to `CCOC(=O)C(=O)c1cc(C(=O)OCC)n(C(C)c2ccccn2)n1` (stereo not drawn) [CH3 / COCO2 Et / CO2 Et / N / CH], the ED50 with rats is 2.86 mg/kg.

On to `CCOC(=O)c1cc(-c2cccc(N(C)C)c2)nn1C(C)c1ccccn1` (stereo not drawn), for which the 50% effective dose (ED50) with rats is 1.5 mg/kg.

Turning to `CCOC(=O)c1cc(-c2csc(-c3cccnc3)n2)nn1C(C)c1ccccn1` (stereo not drawn), in the assay on rats, the ED50 is 1.1 mg/kg.

Turning to `CCOC(=O)c1cc(-c2cnccn2)nn1C(C)c1ccccn1` (stereo not drawn), in the assay on rats, the ED50 amounted to 1.5 mg/kg.

Turning to `CCOC(=O)c1cc(COC(C)=O)n(C(C)c2ccccn2)n1` (stereo not drawn) [CH3 / CO2 Et / CH2 OCOCH3 / N / CH], the ED50 with mice is 28.3 mg/kg.

As for `CCOC(=O)c1cc(-c2cc(C)no2)n(C(C)c2ccccn2)n1` (stereo not drawn), in the assay on rats, the ED50 came out at 7.2 mg/kg.

In the case of `CCOC(=O)c1cc(-c2ncco2)n(C(C)c2ccccn2)n1` (stereo not drawn), the ED50 in the assay with rats is 0.85 mg/kg.

With `CCOC(=O)c1cc(-c2ccncc2)nn1C(C)c1ccccn1` (stereo not drawn), the ED50 in the assay on mice turned out to be 12 mg/kg.

As for `CCOC(=O)c1cc(-c2ccccn2)nn1C(C)c1ccccn1` (stereo not drawn), in the assay with mice, the ED50 is 3.5 mg/kg.

With `CCOC(=O)c1cc(C(=O)OCC)n(C(C)c2cccnc2)n1` (stereo not drawn) [CH3 / CO2 Et / CO2 Et / CH / N], the ED50 with mice was 8.6 mg/kg.

For `CCOC(=O)c1cc(C(C)=O)nn1C(C)c1ccccn1` (stereo not drawn) [CH3 / CH3 CO / CO2 Et / N / CH], the ED50 in the assay on mice was determined as 4 mg/kg.

With `CCOC(=O)c1cc(-c2cocn2)nn1C(C)c1ccccn1` (stereo not drawn), in the assay on mice, the ED50 stood at 7.7 mg/kg.

For `CCOC(=O)c1cc(-c2ccco2)nn1C(C)c1ccccn1` (stereo not drawn), the ED50 in the assay with mice was determined as 1.3 mg/kg.

For `CCOC(=O)c1cc(-c2cccs2)n(Cc2ccccn2)n1`, the ED50 with mice is 14.3 mg/kg.

For the compound `CCOC(=O)c1cc(O)n(C(C)c2ccccn2)n1` (stereo not drawn) [CH3 / CO2 Et / OH / N / CH], in the assay with mice, the ED50 is 31 mg/kg.

With `CCOC(=O)c1cc(-c2nnco2)n(C(C)c2ccccn2)n1` (stereo not drawn), the ED50 in the assay on rats was 7.2 mg/kg.

`CCOC(=O)c1cc(-c2nnco2)nn1C(C)c1ccccn1` (stereo not drawn): the ED50 in the assay on mice is 9 mg/kg.

As for `CCOC(=O)c1cc(C(=O)OCC)n(Cc2ccccn2)n1` [H / CO2 Et / CO2 Et / N / CH], the median effective dose (ED50) with mice was 6.9 mg/kg.

In the case of `CCOC(=O)c1cc(-c2cccnc2)n(Cc2ccccn2)n1`, in the assay on rats, the ED50 came to 17.7 mg/kg.

Take `CCOC(=O)c1cc(CC)nn1C(C)c1ccccn1` (stereo not drawn) [CH3 / CH2 CH3 / CO2 Et / N / CH]: the ED50 in the assay on mice was 9.4 mg/kg.

As for `CCOC(=O)c1cc(-c2cccnc2)nn1Cc1ccccn1`, in the assay on rats, the ED50 came out at 7 mg/kg.

As to `CCOC(=O)c1cc(-c2ocnc2C)n(C(C)c2ccccn2)n1` (stereo not drawn), the ED50 with rats was determined as 23.2 mg/kg.

As for `CCOC(=O)c1cc(-c2cccs2)nn1Cc1ccccn1`, in the assay with mice, the ED50 worked out at 28.3 mg/kg.

In the case of `CCOC(=O)c1cc(-c2ccco2)n(Cc2ccccn2)n1`, the ED50 with mice was 17.6 mg/kg.

A word on the ED50: it is the midpoint of the dose-response relation.
